For orientation: EC50 means the midpoint of the concentration-response curve.

The structures appear in SMILES notation. Active and inactive are the calls of the source. The rule behind the calls is not given here.

For this experiment, the system named is MRP1 cells, doxorubicin viability shift, 10 uM compound. Briefly: viability protection against doxorubicin, MRP-1 line – cell-based, doxorubicin EC50 shift, dose response (AID 844). The following applies: for EC50: measured here: doxorubicin EC50 with compound.

In the case of `COc1ccc(C2CC(c3ccccc3)=NN2C(=O)COC(=O)c2cccnc2Cl)cc1` (stereo not given), the fold increase in Dox EC50 was 0.63 (inactive) and the EC50 was 3.4 µM.

As to `Cc1ccc2nc3c(cc2c1)CC1(C(=O)N(C)C(=O)N(C)C1=O)C1CCCCN31` (stereo not given), the fold increase in Dox EC50 was 0.59 (inactive) and the EC50 amounted to 3.21 µM.

As to `CC(C)OC(=O)CSc1nnc2n1C(C)(C)Cc1ccccc1-2`, the fold increase in Dox EC50 is 0.82 (inactive) and the EC50 was 4.42 µM.

As to `C/C(=N/NC(=O)CSc1ccccn1)c1ccc([N+](=O)[O-])cc1`, the fold increase in Dox EC50 is 0.77 (inactive) and the EC50 amounted to 4.18 µM.

Consider `O=C(N/N=C/c1ccccc1[N+](=O)[O-])c1ccc(COc2ccccc2-c2ccccc2)cc1`, for which the fold increase in Dox EC50 is 1 (inactive) and the EC50 is 5.39 µM.

As to `O=C(NNC1=C(C(=O)C(F)(F)F)CCC1)c1ccc(Cl)cc1`, the fold increase in Dox EC50 is 0.87 (inactive) and the EC50 was 4.7 µM.

With `Cc1nn(Cc2c(F)c(F)c(F)c(F)c2F)c(C)c1NC(=O)c1ccc(COc2ccc(F)cc2)o1`, the fold increase in Dox EC50 is 1 (inactive) and the EC50 was determined as 5.42 µM.

Regarding `O=C(CN1C(=O)/C(=C/c2ccccc2)SC1=S)Nc1ncc(Cc2ccccc2)s1`, the fold increase in Dox EC50 is 1.49 (inactive) and the EC50 was 8.03 µM.

With `Cn1nc(C(F)(F)F)c2cc(NC(=O)OCc3ccc(C(C)(C)C)cc3)sc21`, the fold increase in Dox EC50 is 0.74 (inactive) and the EC50 worked out at 4.02 µM.

As for `CC(C)CCC1CC(CSC(=N)N)OC1=O` (stereo not given), the fold increase in Dox EC50 was 0.68 (inactive) and the EC50 came to 3.68 µM.

As for `Cc1nc(/N=C(\N)NC(=O)N2c3ccccc3Sc3ccccc32)nc2ccccc12`, the fold increase in Dox EC50 was 0.95 (inactive) and the EC50 turned out to be 5.12 µM.

For `Cc1nc(N2CCN(Cc3ccccc3)CC2)nc2c1C(=O)CC(c1ccco1)C2` (stereo not given), the fold increase in Dox EC50 is 0.75 (inactive) and the EC50 was determined as 4.04 µM.

With `COc1ccc(OC)c(NC(=O)CSc2nnc(CNC(=O)COc3ccc(Cl)cc3)o2)c1`, the fold increase in Dox EC50 was 1.11 (inactive) and the EC50 was 5.98 µM.

Regarding `Cc1cc(C)cc(-c2nc(-c3ccncc3)no2)c1`, the fold increase in Dox EC50 is 0.77 (inactive) and the EC50 is 4.13 µM.

As to `Cn1cc(Br)c(C(=O)NNC(=O)c2ccc(Br)cc2)n1`, the fold increase in Dox EC50 is 0.98 (inactive) and the EC50 was 5.26 µM.

For `Cc1oc(C(=O)Nc2ccc(C(=O)O)cc2)cc1COc1ccccc1`, the fold increase in Dox EC50 is 0.42 (inactive) and the EC50 amounted to 2.24 µM.

For the molecule `CCOc1ccc(OCC)c(-c2c(=O)n(OCc3ccc(Cl)cc3)c3ccccc3[n+]2[O-])c1`, the fold increase in Dox EC50 is 0.53 (inactive) and the EC50 came out at 2.86 µM.

Regarding `O=C(O)c1ccc(N/N=C/c2ccc(F)c(F)c2)cc1`, the fold increase in Dox EC50 was 1.31 (inactive) and the EC50 amounted to 7.07 µM.

As to `COc1cc(C)ccc1N(CCCN1C(=O)c2cccc3cccc(c23)C1=O)C(=O)c1cccs1`, the fold increase in Dox EC50 is 1.13 (inactive) and the EC50 came to 6.12 µM.

Consider `Cc1cc(N/N=C/c2ccccc2Cl)nc(NCc2ccccc2)n1`, for which the fold increase in Dox EC50 was 0.2 (inactive) and the EC50 came to 1.08 µM.

Consider `COc1cccc(/C=N/NC(=O)Cn2nc(C)c([N+](=O)[O-])c2C)c1O`, for which the fold increase in Dox EC50 is 0.12 (inactive) and the EC50 worked out at 0.673 µM.

For `c1ccc(-c2ccc(-c3nc(-c4ccncc4)no3)cc2)cc1`, the fold increase in Dox EC50 was 0.41 (inactive) and the EC50 came to 2.21 µM.

With `O=c1c(-c2nnc(SCc3ccc(Cl)cc3)o2)cccn1Cc1ccccc1`, the fold increase in Dox EC50 was 0.63 (inactive) and the EC50 was found to be 3.4 µM.

Turning to `O=C(Nc1nc(COc2ccccc2)cs1)c1ccccc1F`, the fold increase in Dox EC50 is 1.76 and the EC50 was 9.49 µM.

For the molecule `CCCCCCCOc1ccc(-c2ccc(C#N)cn2)cc1`, the fold increase in Dox EC50 is 0.67 (inactive) and the EC50 came out at 3.63 µM.

On to `CCOc1ccccc1N(C(=O)c1snc(C(N)=O)c1N)C(C(=O)NCCC(C)C)c1ccco1` (stereo not given), for which the fold increase in Dox EC50 is 0.3 (inactive) and the EC50 was 1.62 µM.

For `O=C(Nc1ccc(F)cc1)c1c(O)c2c(n(Cc3ccccc3)c1=O)CCCC2`, the fold increase in Dox EC50 is 1.31 (inactive) and the EC50 is 7.07 µM.

With `N#Cc1c(-c2ccco2)nc(SCC(=O)Nc2cccc(Cl)c2)[nH]c1=O`, the fold increase in Dox EC50 was 1.33 (inactive) and the EC50 is 7.17 µM.

As to `COc1ccc(C2CC(c3ccc(Cl)cc3)n3nc(N)nc3N2)cc1` (stereo not given), the fold increase in Dox EC50 was 0.65 (inactive) and the EC50 amounted to 3.52 µM.

For `CCCNC(=O)c1oc2ccc3c(c2c1C)C(=O)CC(C)(C)O3`, the fold increase in Dox EC50 was 0.84 (inactive) and the EC50 is 4.55 µM.

Consider `Cn1cc(Br)c(C(=O)NNC(=O)c2ccc(Cl)cc2)n1`, for which the fold increase in Dox EC50 is 1.23 (inactive) and the EC50 amounted to 6.63 µM.

On to `Cc1cccc(NC(=O)Cn2c(=O)n(Cc3ccco3)c(=N)c3c4c(sc32)COC(C)(C)C4)c1`, for which the fold increase in Dox EC50 was 0.81 (inactive) and the EC50 came out at 4.37 µM.

On to `O=C(O)/C=C\C(=O)NC1CCCCC1`, for which the fold increase in Dox EC50 is 0.68 (inactive) and the EC50 worked out at 3.67 µM.

For `CCCCNc1oc(-c2ccc(OC)cc2)nc1S(=O)(=O)c1ccccc1`, the fold increase in Dox EC50 is 0.72 (inactive) and the EC50 turned out to be 3.87 µM.

Consider `O=C(CC(c1ccccc1)c1ccccc1)Nc1ncn[nH]1`, for which the fold increase in Dox EC50 was 0.75 (inactive) and the EC50 is 4.03 µM.

`CCOC(=O)c1c(-c2cccc([N+](=O)[O-])c2)csc1NC(=O)C1CCCCC1`: the fold increase in Dox EC50 is 0.34 (inactive) and the EC50 turned out to be 1.84 µM.

As for `Cc1nc2ccccc2c(=O)n1/N=C/c1c(O)ccc2oc3c(c12)CCCC3`, the fold increase in Dox EC50 was 0.28 (inactive) and the EC50 worked out at 1.5 µM.

Take `CCc1noc(C)c1C(=O)Nc1nc(-c2cc(C)ccc2C)c(C)s1`: the fold increase in Dox EC50 was 0.83 (inactive) and the EC50 was determined as 4.48 µM.

Consider `Cc1ccc2nc(Nc3nc(CSc4nc5ccccc5s4)cc(=O)[nH]3)nc(C)c2c1`, for which the fold increase in Dox EC50 was 1.08 (inactive) and the EC50 is 5.81 µM.

As for `CCNc1sc(C(=O)c2cccs2)c(N)c1-c1nc2ccccc2s1`, the fold increase in Dox EC50 was 0.59 (inactive) and the EC50 worked out at 3.17 µM.

As to `Cc1c(N2C(=O)/C(=C/c3ccccc3)SC2=S)c(=O)n(-c2ccccc2)n1C`, the fold increase in Dox EC50 is 0.58 (inactive) and the concentration giving a half-maximal response (EC50) worked out at 3.15 µM.

Turning to `Oc1c(C(c2cccs2)N2CCN(c3cccc(Cl)c3)CC2)sc2ncnn12` (stereo not given), the fold increase in Dox EC50 was 0.68 (inactive) and the EC50 came to 3.68 µM.

Turning to `CN(C)S(=O)(=O)c1ccc(S(=O)(=O)N2CCN(CCC#N)CC2)cc1`, the fold increase in Dox EC50 was 0.71 (inactive) and the EC50 stood at 3.85 µM.

For `O=C(NC(=S)Nc1nc(-c2ccccc2)cs1)c1cncc(Br)c1`, the fold increase in Dox EC50 is 0.99 (inactive) and the EC50 is 5.35 µM.

As for `O=C(CC1SC(=O)N(Cc2ccc(Cl)cc2)C1=O)Nc1nccs1` (stereo not given), the fold increase in Dox EC50 is 1.75 and the EC50 is 9.46 µM.

The values above are taken from PubChem BioAssay AID844 (SRMLSC, 2007).
